From patent publication US20220143072A1, “Chitosan nitrate for use as a nitric oxide donor (NO donor)” (NO-ceuticals B.V., priority 2019, published 2022)

Experiment: Fasting salivary nitrate and nitrite after oral nitrate (Quantofix test strips)
Set-up: species or system human
Settings: in vivo
Method: Measuring the fasting value of salivary nitrate and nitrite does give a reflection of the plasma value of nitrate and nitrite. The patient took one capsule chitosan nitrate, containing 120 mg NO3− anion, at 11:00 pm. […] An equivalent amount of 120 mg NO3− was taken at 11:00 pm. […] Oligo chitosan is absorbed before reaching the colon and NO3− will then also be absorbed. Quantofix test strips nitrate and nitrite from Macherey-Nagel company, Germany, were used for measurement of NO3− and NO2−. These test strips allow semiquantitative measurement. Reading of the test strips was performed with a Quantofix Relax reader. Other tests were done based on the ingestion of the daily dose in the morning and by measuring the salivary nitrate and salivary nitrite 24 hours later. Two capsules of chitosan nitrate contained an equivalent amount of 240 mg NO3−. Ten measurements were done for both chitosan nitrate and KNO3 salt.

chitosan nitrate
nitrite values in saliva relative to KNO3: three times higher
